Source: patent US11008301B2, “Piperidinone formyl peptide 2 receptor agonists” (BRISTOL-MYERS SQUIBB COMPANY, priority 2017, dated 2021)
Where “and” joins values, the source holds several entries; their conditions need not be identical. Equal entries are not always repeated. Where two headings read alike, the source gives them in different places.

Experiments:
human FPR1 = human FPR1 (Homo sapiens (Human), UniProt P21462); test: FPR1 cyclic adenosine monophosphate (cAMP) assay; assay type: cell-based; conditions: CHO cells overexpressing human FPR1; forskolin 10 μM; inhibition of cAMP production; read-out: hFPR1 cAMP EC50
Method: (§1) FPR2 and FPR1 Cyclic Adenosine Monophosphate (cAMP) Assays. A mixture of forskolin (5 μM final for FPR2 or 10 μM final for FPR1) and IBMX (200 μM final) were added to 384-well Proxiplates (Perkin-Elmer) pre-dotted with test compounds in DMSO (1% final) at final concentrations in the range of 1.7 nM to 100 μM. Chinese Hamster Ovary cells (CHO) overexpressing human FPR1 or human FPR2 receptors were cultured in F-12 (Ham's) medium supplemented with 10% qualified FBS, 250 μg/ml zeocin and 300 μg/ml hygromycin (Life Technologies). Reactions were initiated by adding 2,000 human FPR2 cells per well or 4,000 human FPR1 cells per well in Dulbecco's PBS (with calcium and magnesium) (Life Technologies) supplemented with 0.1% BSA (Perkin-Elmer). The reaction mixtures were incubated for 30 min at room temperature. The level of intracellular cAMP was determined using the HTRF HiRange cAMP assay reagent kit (Cisbio) according to manufacturer's instruction. Solutions of cryptate conjugated anti-cAMP and d2 flurorophore-labelled cAMP were made in a supplied lysis buffer separately. Upon completion of the reaction, the cells were lysed with equal volume of the d2-cAMP solution and anti-cAMP solution. After a 1-h room temperature incubation, time-resolved fluorescence intensity was measured using the Envision (Perkin-Elmer) at 400 nm excitation and dual emission at 590 nm and 665 nm. A calibration curve was constructed with an external cAMP standard at concentrations ranging from 1 μM to 0.1 pM by plotting the fluorescent intensity ratio from 665 nm emission to the intensity from the 590 nm emission against cAMP concentrations. The potency and activity of a compound to inhibit cAMP production was then determined by fitting to a 4-parametric logistic equation from a plot of cAMP level versus compound concentrations.

human FPR2 = human FPR2 (Homo sapiens (Human), UniProt P25090); test: FPR2 cyclic adenosine monophosphate (cAMP) assay; assay type: cell-based; conditions: CHO cells overexpressing human FPR2
Method: as §1

[1] = cAMP assay, read-out: hFPR2 agonist activity EC50 (hFPR2 Assay)
[2] = forskolin 5 μM, inhibition of cAMP production, read-out: hFPR2 cAMP2 EC50

Sequence of human FPR2 (P25090 whole entry): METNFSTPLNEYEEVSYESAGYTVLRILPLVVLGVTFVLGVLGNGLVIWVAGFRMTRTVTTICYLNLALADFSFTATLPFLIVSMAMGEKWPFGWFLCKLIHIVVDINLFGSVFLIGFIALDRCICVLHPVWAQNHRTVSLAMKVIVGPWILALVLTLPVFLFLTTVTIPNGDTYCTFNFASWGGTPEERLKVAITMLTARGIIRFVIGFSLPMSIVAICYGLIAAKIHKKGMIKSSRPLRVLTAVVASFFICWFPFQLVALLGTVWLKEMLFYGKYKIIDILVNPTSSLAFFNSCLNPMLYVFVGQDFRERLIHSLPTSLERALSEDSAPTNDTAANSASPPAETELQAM
Sequence of human FPR1 (P21462 whole entry): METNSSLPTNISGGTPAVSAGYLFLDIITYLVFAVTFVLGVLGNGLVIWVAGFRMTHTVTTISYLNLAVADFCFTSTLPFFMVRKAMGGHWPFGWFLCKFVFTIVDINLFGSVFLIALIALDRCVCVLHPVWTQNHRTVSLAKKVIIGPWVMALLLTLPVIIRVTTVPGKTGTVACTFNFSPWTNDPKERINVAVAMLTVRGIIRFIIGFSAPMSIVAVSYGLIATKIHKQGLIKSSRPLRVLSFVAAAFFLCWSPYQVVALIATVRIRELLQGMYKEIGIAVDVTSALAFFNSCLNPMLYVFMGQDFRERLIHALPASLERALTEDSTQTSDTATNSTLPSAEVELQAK

| EC50 (human FPR1) [nM] | EC50 (human FPR2; [1]) | EC50 (human FPR2; [2]) [nM] | Structure (SMILES) |
| --- | --- | --- | --- |
| 36 | – | 2.1 | COCC1CCCCN1c1ccc(N2CCC[C@@H](NC(=O)Nc3ccc(C(F)(F)F)cc3)C2=O)cc1 (stereo partly drawn) [Example 14] |
| 1100 | – | 0.18 | CN(C)C1CCCN(c2ccc(N3CCC[C@@H](NC(=O)Nc4ccc(C(F)(F)F)cc4)C3=O)cc2)C1 (stereo partly drawn) [Example 77] |
| 190 | – | 14 | CC(=O)N[C@@H]1CCN(c2ccc(N3CCC[C@@H](NC(=O)Nc4ccc(C(F)(F)F)cc4)C3=O)cc2)C1 [Example 69] |
| – | 10 to 100 nM | – | COC[C@@H]1CCCN1c1ccc(N2CCC[C@@H](NC(=O)Nc3ccc(C(F)(F)F)cc3)C2=O)cc1 [Example 27] |
| – | 10 to 100 nM | – | C[C@@H]1CN(c2ccc(N3CCC[C@@H](NC(=O)Nc4ccc(C(F)(F)F)cc4)C3=O)cc2)C[C@H](C)O1 [Example 43] |
| – | 10 to 100 nM | – | O=C(Nc1ccc(C(F)(F)F)cc1)N[C@@H]1CCCN(c2ccc(N3CC[C@H](O)C3)cc2)C1=O [Example 3] |
| – | ≤ 10 nM | – | COCC1COCCN1c1ccc(N2CCC[C@@H](NC(=O)Nc3ccc(C(F)(F)F)cc3)C2=O)cc1 (stereo partly drawn) [Example 13] |
| – | ≤ 10 nM | – | CN(C)C1CN(c2ccc(N3CCC[C@@H](NC(=O)Nc4ccc(C(F)(F)F)cc4)C3=O)cc2)CC1F (stereo partly drawn) [Example 84] |
| – | 10 to 100 nM | – | CC(C)N1CCN(c2ccc(N3CCC[C@@H](NC(=O)Nc4ccc(C(F)(F)F)cc4)C3=O)cc2)CC1 [Example 33] |
| – | ≤ 10 nM | – | COCC1COCCN1c1ccc(N2CCC[C@@H](NC(=O)Nc3ccc(C(F)(F)F)cc3)C2=O)cc1 (stereo partly drawn) [Example 21] |
| – | ≤ 10 nM | – | O=C(Nc1ccc(C(F)(F)F)cc1)N[C@@H]1CCCN(c2ccc(N3CCCC(C(F)(F)F)C3)cc2)C1=O (stereo partly drawn) [Example 72] |
| – | ≤ 10 nM | – | O=C(Nc1ccc(C(F)(F)F)cc1)N[C@@H]1CCCN(c2ccc(N3CCOCC3)cc2)C1=O [Example 46] |
| – | ≤ 10 nM | – | O=C(Nc1ccc(C(F)(F)F)cc1)N[C@@H]1CCCN(c2ccc(N3CCC(CO)C3)cc2)C1=O (stereo partly drawn) [Example 73] |
| – | 10 to 100 nM | – | CCN1CCN(c2ccc(N3CCC[C@@H](NC(=O)Nc4ccc(C(F)(F)F)cc4)C3=O)cc2)CC1 [Example 42] |
| – | ≤ 10 nM | – | CN(C)C1CN(c2ccc(N3CCC[C@@H](NC(=O)Nc4ccc(C(F)(F)F)cc4)C3=O)cc2)CC1O (stereo partly drawn) [Example 79] |
| – | ≤ 10 nM | – | COC1CCN(c2ccc(N3CCC[C@@H](NC(=O)Nc4ccc(C(F)(F)F)cc4)C3=O)cc2)CC1 [Example 30] |
| – | 10 to 100 nM | – | O=C(Nc1ccc(C(F)(F)F)cc1)N[C@@H]1CCCN(c2ccc(N3CC4(COC4)C3)cc2)C1=O [Example 10] |
| – | 100 to 1000 nM | – | CC(=O)N1CCN(c2ccc(N3CCC[C@@H](NC(=O)Nc4ccc(C(F)(F)F)cc4)C3=O)cc2)CC1 [Example 29] |
| – | ≤ 10 nM | – | CC1CCCN(c2ccc(N3CCC[C@@H](NC(=O)Nc4ccc(C(F)(F)F)cc4)C3=O)cc2)C1 (stereo partly drawn) [Example 38] |
| – | 10 to 100 nM | – | CC1(C)CCN(c2ccc(N3CCC[C@@H](NC(=O)Nc4ccc(C(F)(F)F)cc4)C3=O)cc2)CC1 [Example 40] |
| – | 100 to 1000 nM | – | O=C(Nc1ccc(C(F)(F)F)cc1)N[C@H]1CCCN(c2ccc(N3CCCC(O)C3)cc2)C1=O (stereo partly drawn) [Example 32] |
| – | 10 to 100 nM | – | C[C@H]1COCCN1c1ccc(N2CCC[C@@H](NC(=O)Nc3ccc(C(F)(F)F)cc3)C2=O)cc1 [Example 37] |
| – | 10 to 100 nM | – | O=C(Nc1ccc(C(F)(F)F)cc1)N[C@@H]1CCCN(c2ccc(N3CCCC(O)C3)cc2)C1=O (stereo partly drawn) [Example 31] |
| – | ≤ 10 nM | – | CS(=O)(=O)C1CCN(c2ccc(N3CCC[C@@H](NC(=O)Nc4ccc(C(F)(F)F)cc4)C3=O)cc2)C1 (stereo partly drawn) [Example 108] |
| – | ≤ 10 nM | – | COCC1CCCN1c1ccc(N2CCC[C@@H](NC(=O)Nc3ccc(C(F)(F)F)cc3)C2=O)cc1 (stereo partly drawn) [Example 66] |

Continued, compound first:

| Structure (SMILES) | EC50 (human FPR1) [nM] | EC50 (human FPR2; [1]) | EC50 (human FPR2; [2]) [nM] |
| --- | --- | --- | --- |
| COC[C@@H]1CCCN1c1ccc(N2CCC[C@@H](NC(=O)Nc3ccc(Cl)cc3)C2=O)cc1 [Example 26] | 12 | ≤ 10 nM | 3.7 |
| O=C(Nc1ccc(C(F)(F)F)nc1)N[C@@H]1CCCN(c2ccc(N3CCCCC3=O)cc2F)C1=O [Example 50] | > 10000 | – | 330 |
| O=C(Nc1ccc(C(F)(F)F)cc1)N[C@@H]1CCCN(c2ccc(N3CCCC(CO)C3)nc2)C1=O (stereo partly drawn) [Example 56] | 45 | – | 1.8 |
| O=C(Nc1ccc(Cl)cc1)N[C@@H]1CCCN(c2ccc(N3CCC4(CCCO4)CC3)cc2)C1=O [Example 102] | 61 | – | 15 |
| COCC1CCCCN1c1ccc(N2CCC[C@@H](NC(=O)Nc3ccc(C(F)(F)F)nc3)C2=O)cc1 (stereo partly drawn) [Example 15] | 660 | – | 32 |
| O=C(Nc1ccc(Cl)cc1)N[C@@H]1CCCN(c2ccc(N3C[C@@H](F)[C@@H](F)C3)cc2)C1=O [Example 98] | – | ≤ 10 nM | – |
| O=C(Nc1ccc(Cl)nc1)N[C@@H]1CCCN(c2ccc(N3CC[C@@H](O)C3)cc2)C1=O [Example 6] | – | 10 to 100 nM | – |
| O=C(Nc1ccc(Cl)cc1)N[C@@H]1CCCN(c2ccc(N3CCCC(CO)C3)cc2)C1=O (stereo partly drawn) [Example 78] | – | ≤ 10 nM | – |
| O=C(Nc1ccc(C(F)(F)F)cc1)N[C@@H]1CCCN(c2ccc(N3CCCC(O)C3)nc2)C1=O (stereo partly drawn) [Example 60] | – | 10 to 100 nM | – |
| COCC1CCCCN1c1ccc(N2CCC[C@@H](NC(=O)Nc3ccc(C(F)(F)F)nc3)C2=O)cc1 (stereo partly drawn) [Example 16] | – | 10 to 100 nM | – |
| COC1CCN(c2ccc(N3CCC[C@@H](NC(=O)Nc4ccc(Cl)cc4)C3=O)cc2)C1 (stereo partly drawn) [Example 76] | – | ≤ 10 nM | – |
| O=C(Nc1ccc(Cl)cc1)N[C@@H]1CCCN(c2ccc(N3CCC(O)(C(F)(F)F)CC3)cc2)C1=O [Example 100] | – | ≤ 10 nM | – |
| CS(=O)(=O)C1CCN(c2cc(F)c(N3CCC[C@@H](NC(=O)Nc4ccc(Cl)cc4F)C3=O)c(F)c2)C1 (stereo partly drawn) [Example 90] | – | ≤ 10 nM | – |
| O=C(Nc1ccc(C(F)(F)F)cc1)N[C@@H]1CCCN(c2ccc(N3CC[C@@H](O)C3)nc2)C1=O [Example 55] | – | 10 to 100 nM | – |
| COCC1CCCCN1c1ccc(N2CCC[C@@H](NC(=O)Nc3cnc(C(F)(F)F)cn3)C2=O)c(F)c1 (stereo partly drawn) [Example 71] | – | ≤ 10 nM | – |
| O=C(Nc1ccc(C(F)(F)F)cc1)N[C@@H]1CCCN(c2ccc(N3CCOCC3)cc2F)C1=O [Example 53] | – | 10 to 100 nM | – |
| CN(CC(F)(F)F)C1CCN(c2ccc(N3CCC[C@@H](NC(=O)Nc4ccc(Cl)cc4)C3=O)c(F)c2F)C1 (stereo partly drawn) [Example 85] | – | ≤ 10 nM | – |
| O=C(Nc1ccc(Cl)cc1F)N[C@@H]1CCCN(c2ccc(N3CC[C@@H](F)C3)nc2)C1=O [Example 105] | – | ≤ 10 nM | – |

| Structure (SMILES) | EC50 (human FPR1) [nM] | EC50 (human FPR2; [1]) | EC50 (human FPR2; [2]) [nM] |
| --- | --- | --- | --- |
| COC1CCN(c2ccc(N3CCC[C@@H](NC(=O)Nc4ccc(C(F)(F)F)cc4)C3=O)cn2)CC1 [Example 58] | – | 10 to 100 nM | – |
| COC[C@@H]1CCCN1c1ccc(N2CCC[C@@H](NC(=O)Nc3ccc(C(F)(F)F)nc3)C2=O)cc1 [Example 25] | – | 10 to 100 nM | – |
| O=C(Nc1ccc(C(F)(F)F)nc1)N[C@@H]1CCCN(c2ccc(N3C[C@H]4CC[C@@H](C3)O4)cc2)C1=O [Example 47] | – | 100 to 1000 nM | – |
| O=C(Nc1ccc(Cl)cc1)N[C@@H]1CCCN(c2ccc(N3CCC4(CCCO4)CC3)cc2)C1=O [Example 101] | – | ≤ 10 nM | – |
| CN(C)C1CCN(c2ccc(N3CCC[C@@H](NC(=O)Nc4ccc(Cl)cc4)C3=O)cn2)C1 (stereo partly drawn) [Example 103] | – | ≤ 10 nM | – |
| CN(C)C1CCN(c2ccc(N3CCC[C@@H](NC(=O)Nc4ccc(Cl)cc4)C3=O)c(F)c2F)C1 (stereo partly drawn) [Example 75] | – | ≤ 10 nM | – |
| O=C(Nc1cnc(C(F)(F)F)cn1)N[C@@H]1CCCN(c2ccc(N3CCC(F)(F)C3)cc2)C1=O [Example 67] | – | ≤ 10 nM and 10 to 100 nM | – |
| COC[C@@H]1CCCN1c1ccc(N2CCC[C@@H](NC(=O)Nc3ccc(C(F)(F)F)cn3)C2=O)cc1 [Example 24] | – | 100 to 1000 nM | – |
| CC1(F)CCN(c2ccc(N3CCC[C@@H](NC(=O)Nc4ccc(Cl)cc4)C3=O)cc2)CC1 [Example 99] | – | ≤ 10 nM | – |
| O=C(Nc1ccc(Cl)cc1F)N[C@@H]1CCCN(c2ccc(N3CC[C@@H](F)C3)c(F)c2F)C1=O [Example 88] | – | ≤ 10 nM | – |
| CN(C)C(=O)C1CCN(c2ccc(N3CCC[C@@H](NC(=O)Nc4ccc(Cl)cc4F)C3=O)cc2)C1 (stereo partly drawn) [Example 86] | – | ≤ 10 nM | – |
| O=C(Nc1ccc(Cl)cc1)N[C@@H]1CCCN(c2ccc(N3CCC(C4CC4)C3)cc2)C1=O (stereo partly drawn) [Example 97] | – | ≤ 10 nM | – |
| CC1(O)CCN(c2ccc(N3CCC[C@@H](NC(=O)Nc4ccc(Cl)cc4)C3=O)cc2)C1 (stereo partly drawn) [Example 94] | – | ≤ 10 nM | – |
| C[C@H]1COCCN1c1ccc(N2CCC[C@@H](NC(=O)Nc3ccc(C(F)(F)F)nc3)C2=O)cc1 [Example 8] | – | 100 to 1000 nM | – |
| COc1ccc(NC(=O)N[C@@H]2CCCN(c3ccc(N4CCOC[C@H]4C)cc3)C2=O)cc1 [Example 36] | – | 10 to 100 nM | – |
| O=C(Nc1ccc(Cl)cc1F)N[C@@H]1CCCN(c2ccc(N3CC[C@@H](O)C3)nc2)C1=O [Example 106] | – | ≤ 10 nM | – |
| CC1CCN(c2ccc(N3CCC[C@@H](NC(=O)Nc4ccc(C(F)(F)F)cc4)C3=O)cn2)CC1 [Example 59] | – | 10 to 100 nM | – |
